IC50 data for 25 compounds are collected here from patent US12215093B2, “Bicyclic carboxamides and methods of use thereof” (Tempest Therapeutics, Inc., priority 2018, dated 2025).

One assay concerns the target T1, EP4 (Homo sapiens, UniProt P35408).
T1 construct: host or cells: stably transfected HEK293 cells co-expressing a promiscuous G protein and a clytin variant
Kind of assay: Functional calcium flux assay, EP4. The assay is classed as cell-based. As to conditions: stably transfected HEK293 cells; PGE2 10 nM; read-out: EP4 Ca2+-flux assay IC50. (A change in cytosolic calcium serves as a functional read-out for many receptors and channels.)

The target of a further assay is EP2 (Homo sapiens, UniProt P43116).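 Also: functional calcium flux assay in stably transfected HEK293 cells expressing EP2 coupled via a promiscuous G protein, clytin luminescence read as area under the curve, 30 min compound preincubation.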
Chain of EP2 (P43116 whole entry): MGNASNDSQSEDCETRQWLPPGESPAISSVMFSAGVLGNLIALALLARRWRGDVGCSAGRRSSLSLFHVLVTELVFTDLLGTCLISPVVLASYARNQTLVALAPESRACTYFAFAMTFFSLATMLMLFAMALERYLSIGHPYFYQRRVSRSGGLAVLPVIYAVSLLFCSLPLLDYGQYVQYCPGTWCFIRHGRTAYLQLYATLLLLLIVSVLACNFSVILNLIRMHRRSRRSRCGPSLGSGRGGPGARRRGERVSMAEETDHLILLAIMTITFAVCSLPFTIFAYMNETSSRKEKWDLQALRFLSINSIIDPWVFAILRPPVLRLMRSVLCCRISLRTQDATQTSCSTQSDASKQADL

T1 sequence (P35408 whole entry): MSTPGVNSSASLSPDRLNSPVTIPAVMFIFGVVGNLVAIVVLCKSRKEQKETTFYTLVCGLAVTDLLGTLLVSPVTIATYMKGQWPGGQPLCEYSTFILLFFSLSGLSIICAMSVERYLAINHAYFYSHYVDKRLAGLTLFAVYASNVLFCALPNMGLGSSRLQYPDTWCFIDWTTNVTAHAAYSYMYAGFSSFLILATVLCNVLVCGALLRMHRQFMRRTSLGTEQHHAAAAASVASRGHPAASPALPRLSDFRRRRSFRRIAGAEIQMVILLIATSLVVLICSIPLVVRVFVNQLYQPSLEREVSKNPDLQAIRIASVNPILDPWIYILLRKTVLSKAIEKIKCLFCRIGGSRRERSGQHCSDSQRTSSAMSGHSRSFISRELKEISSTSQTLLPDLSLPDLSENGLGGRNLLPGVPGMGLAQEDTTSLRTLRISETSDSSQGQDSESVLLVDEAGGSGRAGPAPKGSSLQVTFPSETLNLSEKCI
Procedure for EP2: (§1) Each receptor subtype has an additional promiscuous G protein added in order to couple the aforementioned receptor to the calcium signaling pathway. The parental cell line used also expresses a novel variant of clytin, a calcium-activated photo-protein, to enable sensitive luminescent detection. Briefly, cells were plated at 50,000 cells-per-well in black, clear bottom 96-well plates. The plated cells were allowed to sit at room temperature for 30 min prior to transferring to a humidified, 37° C., 5% CO2 incubator for 18 to 24 h. Assay buffer (HBSS with 20 mM HEPES) and loading buffer (assay buffer plus 10 μM coelenterazine) were prepared on the day of the assay. Assays were performed by aspirating media from the assay plate and washing once with assay buffer, then replacing with loading buffer and allowing the cells to incubate for 1.5 h at room temperature. Compounds were prepared in assay buffer at a 3× final concentration in non-binding plates. Compounds were added to the cell plates and incubated for 30 min at room temperature. The prostanoid receptor ligand PGE2 was prepared at a 4× dilution ratio for a final concentration of 10 nM. Plates were run on a Flexstation™ using a 100 ms integration luminescence protocol for a total of 60 sec with ligand addition at 15 sec. Data were obtained from relative light units as measured by area under the curve.
Procedure for EP4: as §1

With `COc1cc(C#N)cc(-c2ccc(Cn3ccc4c(F)ccc(C(=O)NC5CC6(C5)CC(C(=O)O)C6)c43)cc2)c1` (centres unmarked) [Example 49, (Sa)-6-(1-((3’-cyano-5’-methoxy-[1,1′-biphenyl]-4-yl)methyl)-4-fluoro-1H-indole-7-carboxamido)spiro[3.3]heptane-2-carboxylic acid], the figures for the IC50 on EP4 and on EP2 were less than 1 nM and less than 25 nM, respectively.
The matching figures for `N#Cc1cccc(-c2ccc(Cn3ccc4c(F)ccc(C(=O)NC5CC6(C5)CC(C(=O)O)C6)c43)cc2)c1` (centres unmarked) [Example 55, (Sa)-6-(1-((3’-cyano-[1,1′-biphenyl]-4-yl)methyl)-4-fluoro-1H-indole-7-carboxamido)spiro[3.3]heptane-2-carboxylic acid]: less than 1 nM and 46 nM.
The matching figures for `COc1cc(C(=O)NC2CC3(CC(CC(=O)O)C3)C2)c2c(cnn2Cc2ccc(-c3ccccc3)cc2)c1` (centres unmarked) [Example 164, (Ra)-2-(6-(1-([1,1′-Biphenyl]-4-ylmethyl)-5-methoxy-1H-indazole-7-carboxamido)spiro[3.3]heptan-2-yl)acetic acid]: less than 1 nM and less than 25 nM.
For `O=C(NC1CC2(C1)CC(C(=O)O)C2)c1ccc(F)c2ccn(Cc3ccc(-c4cccc(OC5COC5)c4)cc3)c12` (centres unmarked) [Example 57, (Sa)-6-(4-fluoro-1-((3′-(oxetane-3-yloxy)-[1,1′-biphenyl]-4-yl)methyl)-1H-indole-7-carboxamido)spiro[3.3]heptane-2-carboxylic acid] the same measures were less than 1 nM and 99 nM.
For the compound `COc1cccc(-c2ccc(Cn3ncc4c(Cl)ccc(C(=O)NC5CC6(CC(CC(=O)O)C6)C5)c43)cc2)n1` [Example 149, (R)-2-(6-(4-Chloro-1-(4-(6-methoxypyridin-2-yl)benzyl)-1H-indazole-7-carboxamido)spiro[3.3]heptan-2-yl)acetic acid], the figures for the IC50 on EP4 and on EP2 were less than 1 nM and 38 nM, respectively.
Take `O=C(NC1CC2(C1)CC(C(=O)O)C2)c1ccc(Cl)c2cnn(Cc3ccc(C4=CCCCC4)c(F)c3)c12` (centres unmarked) [Example 81, (Sa)-6-(4-chloro-1-((2-fluoro-2′3′4′5′-tetrahydro-[1,1’-biphenyl]-4-yl)methyl)-1H-indazole-7-carboxamido)spiro[3.3]heptane-2-carboxylic acid]: the values for the IC50 at EP4 and against EP2 were less than 1 nM and less than 25 nM, respectively.
For `CCOc1cc(-c2ccc(C(C)n3ccc4c(F)ccc(C(=O)NC5CC6(C5)CC(C(=O)O)C6)c43)cc2)ccn1` (single isomer, unassigned) [Example 129, (Sa)-6-(1-((R) or (S)-1-(4-(2-ethoxypyridin-4-yl)phenyl)-ethyl)-4-fluoro-1H-indole-7-carboxamido)spiro[3.3]heptane-2-carboxylic acid] the same measures were 3 nM and 61 nM.
The matching figures for `CCOc1ncc(C(=O)NC2CC3(C2)CC(C(=O)O)C3)c2c1ccn2Cc1ccc(-c2ccccc2)cc1` (centres unmarked) [Example 90, (Sa)-6-(1-([1,1′-biphenyl]-4-ylmethyl)-4-ethoxy-1H-pyrrolo[3,2-c]pyridine-7-carboxamido)spiro[3.3]heptane-2-carboxylic acid]: less than 1 nM and 57 nM.
The matching figures for `COc1ccc(-c2ccc(C(C)n3ccc4c(F)ccc(C(=O)NC5CC6(C5)CC(C(=O)O)C6)c43)cc2)cn1` (racemic) [Example 119, (Sa)-6-(4-fluoro-1-((racemic)-1-(4-(6-methoxypyridin-3-yl)phenyl)-ethyl)-1H-indole-7-carboxamido)spiro[3.3]heptane-2-carboxylic acid]: 3.8 nM and 59 nM.
In the case of `O=C(O)CC1CC2(C1)CC(NC(=O)c1cc(Cl)cc3cnn(Cc4ccc(-c5ccccc5)c(F)c4)c13)C2` (centres unmarked) [Example 151, (Ra)-2-(6-(5-Chloro-1-((2-fluoro-[1,1′-biphenyl]-4-yl)methyl)-1H-indazole-7-carboxamido)spiro[3.3]heptan-2-yl)acetic acid], the IC50 (usually the midpoint of a concentration-inhibition curve) at EP4 is less than 1 nM; against EP2, less than 25 nM.
The matching figures for `CC(c1ccc(-c2ccccc2)cc1)n1ncc2cc(Cl)cc(C(=O)NC3CC4(C3)CC(C(=O)O)C4)c21` (racemic) [Example 173, (Sa)-6-(1-((racemic)1-([1,1′-Biphenyl]-4-yl)ethyl)-5-chloro-1H-indazole-7-carboxamido)spiro[3.3]heptane-2-carboxylic acid]: 7.2 nM and less than 25 nM.
For `COc1ccc(-c2ccc(Cn3ccc4c(F)ccc(C(=O)NC5CC6(CC(CC(=O)O)C6)C5)c43)cc2)cn1` (centres unmarked) [Example 138, (Ra)-2-(6-(4-Fluoro-1-(4-(6-methoxypyridin-3-yl)benzyl)-1H-indole-7-carboxamido)spiro[3.3]heptan-2-yl)acetic acid] the same measures were less than 1 nM and 25 nM.
For `COc1cc(C#N)cc(-c2ccc(Cn3ccc4c(F)ccc(C(=O)NC5CC6(C5)CC(C(=O)O)C6)c43)cc2)n1` (centres unmarked) [Example 59, (Sa)-6-(1-(4-(4-cyano-6-methoxypyridin-2-yl)benzyl)-4-fluoro-1H-indole-7-carboxamido)spiro[3.3]heptane-2-carboxylic acid] the same measures were 2.5 nM and 51 nM.
Take `COc1ccc2cc(-c3ccc(Cn4ncc5c(Cl)ccc(C(=O)NC6CC7(CC(CC(=O)O)C7)C6)c54)cc3)ccc2n1` (centres unmarked) [Example 146, (Ra)-2-(6-(4-Chloro-1-(4-(2-methoxyquinolin-6-yl)benzyl)-1H-indazole-7-carboxamido)spiro[3.3]heptan-2-yl)acetic acid]: the IC50 on EP4 is less than 1 nM; against EP2, 82 nM.
The matching figures for `CCOc1cc(-c2ccc(Cn3ccc4c(Cl)ccc(C(=O)NC5CC6(C5)CC(C(=O)O)C6)c43)cc2)ccn1` (centres unmarked) [Example 70, (Sa)-6-(4-chloro-1-(4-(2-ethoxypyridin-4-yl)benzyl)-1H-indole-7-carboxamido)spiro[3.3]heptane-2-carboxylic acid]: less than 1 nM and less than 25 nM.
For `O=C(NC1CC2(C1)CC(C(=O)O)C2)c1ccc(Cl)c2cnn(Cc3ccc(OC(F)(F)F)cc3)c12` (centres unmarked) [Example 95, (Sa)-6-(4-chloro-1-(4-(trifluoromethoxy)benzyl)-1H-indazole-7-carboxamido)spiro[3.3]heptane-2-carboxylic acid] the same measures were 9 nM and 83 nM.
For `O=C(NC1CC2(C1)CC(C(=O)O)C2)c1ccc(Cl)c2cnn(Cc3ccc(N4CC5CC5(C(F)F)C4)c(F)c3)c12` (racemic) [Example 76, (Sa)-6-(4-chloro-1-(4-((racemic)-1-(difluoromethyl)-3-azabicyclo[3.1.0]hexan-3-yl)-3-fluorobenzy1)-1H-indazole-7-carboxamido)spiro[3.3]heptane-2-carboxylic acid] the same measures were less than 1 nM and 56 nM.
As for `CNC(=O)c1cccc(-c2ccc(Cn3ccc4c(F)ccc(C(=O)NC5CC6(C5)CC(C(=O)O)C6)c43)cc2)n1` (centres unmarked) [Example 62, (Sa)-6-(4-fluoro-1-(4-(6-(methylcarbamoyl)pyridin-2-yl)benzyl)-1H-indole-7-carboxamido)spiro[3.3]heptane-2-carboxylic acid], the IC50 at EP4 was less than 1 nM; against EP2, 54 nM.
Turning to `COc1cc(C#N)cc(-c2ccc(C(C)n3ncc4cccc(C(=O)NC5CC6(C5)CC(C(=O)O)C6)c43)cc2)c1` (racemic) [Example 114, (Sa)-6-(1-((racemic)-1-(3′-cyano-5′-methoxy-[1,1′-biphenyl]-4-yl)-ethyl)-1H-indazole-7-carboxamido)spiro[3.3]heptane-2-carboxylic acid], the IC50 at EP4 was 5.5 nM; against EP2, 57 nM.
For `COc1cc(C#N)cc(-c2ccc(C(C)n3ncc4c(Cl)ccc(C(=O)NC5CC6(C5)CC(C(=O)O)C6)c43)cc2)c1` (racemic) [Example 123, (Sa)-6-(4-chloro-1-((racemic)-1-(3′-cyano-5′-methoxy-[1,1′-biphenyl]-4-yl)-ethyl)-1H-indazole-7-carboxamido)spiro[3.3]heptane-2-carboxylic acid] the same measures were 12 nM and 60 nM.
For `COc1cc(-c2ccc(Cn3ccc4c(Cl)ccc(C(=O)NC5CC6(C5)CC(C(=O)O)C6)c43)cc2)ccn1` (centres unmarked) [Example 69] the same measures were 2.2 nM and 33 nM.
For `O=C(O)CC1CC2(C1)CC(NC(=O)c1cc(OC(F)F)cc3cnn(Cc4ccc(-c5ccccc5)cc4)c13)C2` (centres unmarked) [Example 165, (Ra)-2-(6-(1-([1,1′-Biphenyl]-4-ylmethyl)-5-(difluoromethoxy)-1H-indazole-7-carboxamido)spiro[3.3]heptan-2-yl)acetic acid] the same measures were 1 nM and less than 25 nM.
With `CCOc1cccc(-c2ccc(C(C)n3ncc4c(Cl)ccc(C(=O)NC5CC6(C5)CC(C(=O)O)C6)c43)cc2)n1` (racemic) [Example 134, (Sa)-6-(4-chloro-1-((racemic)-1-(4-(6-ethoxypyridin-2-yl)phenyl)-ethyl)-1H-indazole-7-carboxamido)spiro[3.3]heptane-2-carboxylic acid], the concentration for half-maximal inhibition (IC50) on EP4 was 1.3 nM; on EP2, less than 25 nM.
For `COc1ccc(-c2ccc(Cn3ccc4c(F)ccc(C(=O)NC5CC6(C5)CC(C(=O)O)C6)c43)cc2)cc1` (centres unmarked) [Example 51, (Sa)-6-(4-fluoro-1-((4’-methoxy-[1,1′-biphenyl]-4-yl)methyl)-1H-indole-7-carboxamido)spiro[3.3]heptane-2-carboxylic acid] the same measures were less than 1 nM and less than 25 nM.
For `COc1cc(-c2ccc(Cn3ncc4cc(Cl)cc(C(=O)NC5CC6(C5)CC(C(=O)O)C6)c43)c(F)c2)ccn1` (centres unmarked) [Example 156, (Sa)-6-(5-Chloro-1-(2-fluoro-4-(2-methoxypyridin-4-yl)benzyl)-1H-indazole-7-carboxamido)spiro[3.3]heptane-2-carboxylic acid] the same measures were less than 1 nM and less than 25 nM.
